In US20090087389A1, “DEHYDROEPIAN[…] DIHYDRATE INHALATION COMPOSITIONS AND METHODS” ([…] PHARMACEUTICALS, LLC., priority 2002, published 2009):

How the values were obtained:
[1] = solid state; cited from earlier work
[2] = Stability at 50° C. with and without lactose (DHEA formation by HPLC); format: physicochemical; settings: 1 week at 50° C.
From the text: These conditions were used to stress the formulation in order to predict its long-term stability results.
The primary degradant is dehydroepiandrosterone or DHEA. […] The materials on accelerated storage become more cohesive with time as evidenced by clumping during sample weighing for chemical analysis. […] This is a considerable disadvantage since lactose is the most commonly used inhalation excipient for dry powder formulations. Continuing with the virtually anhydrous form would mean limiting formulations to neat powder or undertaking more comprehensive safety studies to use a novel excipient.

[3] = Nebulizer studies (Pari ProNeb Ultra / LC Plus, AS-6 impactor, by-pass collector); settings: 0.12% NaCl; no precipitate during nebulization
Protocol: Nebulizer Studies. […] The nebulizer is filled with 5 mL of solution and nebulization is continued until the output became visually insignificant (4½ to 5 min.). Nebulizer solutions are tested using a California Instruments AS-6 6-stage impactor with a USP throat. The impactor is run at 30 L/min for 8 seconds to collect a sample following one minute of nebulization time. At all other times during the experiment, the aerosol is drawn through the by-pass collector at approximately 33 L/min. The collection apparatus, nebulizer, and impactor are rinsed with mobile phase and assayed by HPLC. […] This volume is selected as the practical upper limit for use in a clinical study.

Which hygroscopicity [1] does the source give for `C[C@]12CC[C@H](OS(=O)(=O)[O-])CC1=CC[C@@H]1[C@@H]2CC[C@]2(C)C(=O)CC[C@@H]12.[Na+]` [Anhydrous DHEA-S] here?
The hygroscopicity was “very hygroscopic”.

For `CC12CCC3C(CC=C4CC(OS(=O)(=O)[O-])CCC43C)C1CCC2=O.[Na+]` (stereo not drawn) [DHEA-S dihydrate, dehydroepiandrosterone sodium sulfate dihydrate], which color after storage [2] is on record?
The color after storage was “no change in color”.

With `C[C@]12CC[C@H](OS(=O)(=O)[O-])CC1=CC[C@@H]1[C@@H]2CC[C@]2(C)C(=O)CC[C@@H]12.[Na+]` [DHEA-S, sodium dehydroepiandrostenone sulfate] as the compound, how does the “highest solution concentration for a proof of concept clinical trial formulation” value [3] read?
The value was “approximately 7.5 mg/mL”.
